We go through five compounds from ChEMBL document CHEMBL1152225, “Optimization of a series of potent and selective ketone histone deacetylase inhibitors” (Bioorg Med Chem Lett, 2008).

Among the targets are Histone deacetylase 3 (Homo sapiens, UniProt O15379); Histone deacetylase 1 (Homo sapiens, UniProt Q13547); Histone deacetylase 2 (Homo sapiens, UniProt Q92769).
Data set [1] has as its target T1, Protein deacetylase HDAC6 (Homo sapiens, UniProt Q9UBN7).
T1 sequence (Q9UBN7 whole entry): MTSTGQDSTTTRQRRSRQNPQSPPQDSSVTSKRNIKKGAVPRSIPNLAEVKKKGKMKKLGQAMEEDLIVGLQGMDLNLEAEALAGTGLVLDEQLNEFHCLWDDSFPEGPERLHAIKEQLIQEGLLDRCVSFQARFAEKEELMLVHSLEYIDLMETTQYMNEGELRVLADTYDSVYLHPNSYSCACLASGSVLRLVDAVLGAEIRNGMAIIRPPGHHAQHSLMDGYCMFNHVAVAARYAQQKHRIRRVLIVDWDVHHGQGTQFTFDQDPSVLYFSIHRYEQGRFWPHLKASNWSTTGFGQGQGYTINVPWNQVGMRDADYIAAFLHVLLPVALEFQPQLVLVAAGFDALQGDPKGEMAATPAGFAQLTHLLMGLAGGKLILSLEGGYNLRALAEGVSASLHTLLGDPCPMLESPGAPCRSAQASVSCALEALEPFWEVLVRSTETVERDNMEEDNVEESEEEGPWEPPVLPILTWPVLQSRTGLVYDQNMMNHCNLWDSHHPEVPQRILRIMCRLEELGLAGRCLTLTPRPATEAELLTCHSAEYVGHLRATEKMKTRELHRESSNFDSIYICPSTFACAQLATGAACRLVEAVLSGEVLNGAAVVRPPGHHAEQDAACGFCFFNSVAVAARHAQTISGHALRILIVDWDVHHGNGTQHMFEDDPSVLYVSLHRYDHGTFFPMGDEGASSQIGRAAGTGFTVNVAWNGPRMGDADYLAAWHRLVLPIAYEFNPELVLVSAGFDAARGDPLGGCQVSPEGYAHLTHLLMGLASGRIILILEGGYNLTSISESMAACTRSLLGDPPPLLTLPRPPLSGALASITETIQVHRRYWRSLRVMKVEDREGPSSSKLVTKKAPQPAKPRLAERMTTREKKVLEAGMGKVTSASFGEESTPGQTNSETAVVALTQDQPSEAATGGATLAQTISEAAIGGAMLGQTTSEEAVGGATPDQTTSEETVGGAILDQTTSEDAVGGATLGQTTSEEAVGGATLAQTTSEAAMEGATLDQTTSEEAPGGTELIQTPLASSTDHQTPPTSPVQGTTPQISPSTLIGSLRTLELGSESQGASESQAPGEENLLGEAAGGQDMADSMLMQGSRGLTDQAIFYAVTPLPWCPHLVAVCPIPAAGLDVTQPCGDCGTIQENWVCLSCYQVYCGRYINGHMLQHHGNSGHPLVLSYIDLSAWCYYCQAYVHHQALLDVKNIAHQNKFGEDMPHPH

The next data set relates to HeLa. Briefly: Antiproliferative activity against human HeLa cells after 72 hrs by celltiter-blue viability assay. Format: functional, cell-based. For orientation: The colour change of resazurin is a common sign of viable cells or microbes.
The next data set addresses T2, Histone deacetylase 8 (Homo sapiens, UniProt Q9BY41).
T2 sequence (Q9BY41 whole entry): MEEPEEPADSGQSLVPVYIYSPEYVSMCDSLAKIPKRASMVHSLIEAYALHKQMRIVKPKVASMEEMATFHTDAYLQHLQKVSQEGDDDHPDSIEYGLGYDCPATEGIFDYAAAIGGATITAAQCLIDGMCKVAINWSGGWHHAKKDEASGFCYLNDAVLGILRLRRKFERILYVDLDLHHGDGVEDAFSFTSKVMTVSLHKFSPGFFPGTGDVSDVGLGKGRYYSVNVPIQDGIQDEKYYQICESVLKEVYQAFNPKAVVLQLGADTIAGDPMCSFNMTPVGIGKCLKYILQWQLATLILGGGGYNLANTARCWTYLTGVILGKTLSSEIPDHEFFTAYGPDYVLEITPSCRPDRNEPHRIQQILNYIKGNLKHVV
The data set can be described thus: Inhibition of HDAC8.

A short description of data set [2]: Half life in iv dosed rat. The following applies: in vivo. The data set is classed as ADME, organism-based.
A short description of data set [3]: Clearance in iv dosed dog. The data set is classed as ADME, organism-based, Canis lupus familiaris. The following applies: in vivo.
Data set [4] can be described thus: Volume of distribution at steady state in iv dosed rat. The data set is classed as ADME, organism-based. The following applies: in vivo, read-out: Vdss.
Data set [5] is described as follows: Half life in iv dosed dog. The data set is classed as ADME, organism-based, Canis lupus familiaris. The settings on record: in vivo.
Data set [6] is described as follows: Protein binding in dog plasma. The data set is classed as ADME, cell-free, Canis lupus familiaris. The following applies: read-out: PPB (converted).
A short description of data set [7]: Protein binding in human plasma. Format: ADME, cell-free. The following applies: read-out: PPB (converted).
A short description of data set [8]: Metabolic stability in dog liver microsomes assessed as intrinsic clearance. The data set is classed as ADME, Canis lupus familiaris, Microsome. In general terms: Microsomes from liver hold many membrane-bound enzymes, among them those of drug oxidation.
Data set [9] is described as follows: Protein binding in rat plasma. The data set is classed as ADME, cell-free. The following applies: read-out: PPB (converted).
The test system of the next data set is A549. Briefly: Antiproliferative activity against human A549 cells after 72 hrs by celltiter-blue viability assay. The data set is classed as functional, cell-based. The following applies: A549, 72 h.
A short description of data set [10]: Clearance in iv dosed rat. Format: ADME, organism-based. The following applies: in vivo.
Another data set deals with Histone deacetylase 4 (Homo sapiens, UniProt P56524). Briefly: Inhibition of HDAC4.
Chain of Histone deacetylase 4 (P56524 whole entry): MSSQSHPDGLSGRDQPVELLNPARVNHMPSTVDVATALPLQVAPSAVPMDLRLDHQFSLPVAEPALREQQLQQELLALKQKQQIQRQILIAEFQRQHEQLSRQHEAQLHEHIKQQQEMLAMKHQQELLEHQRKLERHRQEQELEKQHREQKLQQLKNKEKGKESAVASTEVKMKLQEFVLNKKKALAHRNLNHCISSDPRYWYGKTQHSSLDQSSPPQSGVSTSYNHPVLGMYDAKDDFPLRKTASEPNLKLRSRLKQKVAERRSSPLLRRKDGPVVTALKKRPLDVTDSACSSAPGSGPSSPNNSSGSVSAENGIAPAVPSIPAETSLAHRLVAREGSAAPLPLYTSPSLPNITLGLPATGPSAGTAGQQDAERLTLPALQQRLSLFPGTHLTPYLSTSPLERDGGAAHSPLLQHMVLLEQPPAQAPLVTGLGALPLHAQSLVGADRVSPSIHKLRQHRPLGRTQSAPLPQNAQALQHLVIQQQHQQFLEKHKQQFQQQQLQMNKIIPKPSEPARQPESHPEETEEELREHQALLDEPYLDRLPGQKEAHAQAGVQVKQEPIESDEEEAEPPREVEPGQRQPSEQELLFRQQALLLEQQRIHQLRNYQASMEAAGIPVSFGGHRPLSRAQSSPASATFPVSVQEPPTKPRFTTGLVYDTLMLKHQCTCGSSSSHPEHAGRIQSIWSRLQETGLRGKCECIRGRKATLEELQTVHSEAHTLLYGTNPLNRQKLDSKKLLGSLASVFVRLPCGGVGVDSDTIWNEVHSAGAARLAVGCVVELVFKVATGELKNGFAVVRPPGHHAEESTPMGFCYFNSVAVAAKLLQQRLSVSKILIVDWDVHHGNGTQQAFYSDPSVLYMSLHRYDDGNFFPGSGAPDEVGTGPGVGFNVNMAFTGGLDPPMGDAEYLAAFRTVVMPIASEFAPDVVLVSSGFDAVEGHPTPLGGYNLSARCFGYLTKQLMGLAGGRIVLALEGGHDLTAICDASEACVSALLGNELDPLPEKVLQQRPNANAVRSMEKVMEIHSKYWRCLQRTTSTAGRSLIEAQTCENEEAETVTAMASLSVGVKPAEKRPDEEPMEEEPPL
For another data set, the target named is Histone deacetylase 5 (Homo sapiens, UniProt Q9UQL6). The data set can be described thus: Inhibition of HDAC5.
Chain of Histone deacetylase 5 (Q9UQL6 whole entry): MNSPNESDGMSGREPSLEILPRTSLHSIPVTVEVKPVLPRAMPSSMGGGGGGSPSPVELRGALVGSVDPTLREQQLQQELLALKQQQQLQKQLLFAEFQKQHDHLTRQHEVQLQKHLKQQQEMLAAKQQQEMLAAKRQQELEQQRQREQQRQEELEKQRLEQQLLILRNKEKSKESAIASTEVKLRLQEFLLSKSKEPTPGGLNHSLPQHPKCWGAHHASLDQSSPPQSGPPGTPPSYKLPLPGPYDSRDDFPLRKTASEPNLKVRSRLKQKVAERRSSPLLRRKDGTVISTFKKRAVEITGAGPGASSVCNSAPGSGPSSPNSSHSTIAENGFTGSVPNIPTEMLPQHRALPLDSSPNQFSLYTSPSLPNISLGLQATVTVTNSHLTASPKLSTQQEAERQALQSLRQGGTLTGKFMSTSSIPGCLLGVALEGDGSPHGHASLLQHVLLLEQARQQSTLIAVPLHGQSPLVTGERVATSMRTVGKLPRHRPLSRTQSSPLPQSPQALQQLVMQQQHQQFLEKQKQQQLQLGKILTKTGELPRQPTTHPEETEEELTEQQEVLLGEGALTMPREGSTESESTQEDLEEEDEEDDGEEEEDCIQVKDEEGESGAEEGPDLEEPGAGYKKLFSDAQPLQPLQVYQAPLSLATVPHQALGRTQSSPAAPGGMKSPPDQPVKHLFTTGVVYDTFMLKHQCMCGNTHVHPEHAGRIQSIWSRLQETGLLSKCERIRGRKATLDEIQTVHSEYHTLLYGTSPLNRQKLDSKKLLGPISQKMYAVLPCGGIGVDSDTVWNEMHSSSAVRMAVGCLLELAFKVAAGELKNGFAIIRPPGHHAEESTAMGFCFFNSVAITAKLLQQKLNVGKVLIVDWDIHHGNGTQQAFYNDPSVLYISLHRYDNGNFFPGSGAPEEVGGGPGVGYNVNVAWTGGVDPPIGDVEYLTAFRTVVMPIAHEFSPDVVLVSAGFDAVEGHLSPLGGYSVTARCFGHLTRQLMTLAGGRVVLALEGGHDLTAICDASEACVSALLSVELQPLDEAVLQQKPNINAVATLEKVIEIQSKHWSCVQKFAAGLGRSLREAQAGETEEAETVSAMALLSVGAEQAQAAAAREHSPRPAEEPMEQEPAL
In a further data set the test system is Liver microsomes. The data set can be described thus: Metabolic stability in human liver microsomes assessed as intrinsic clearance. Format: ADME, Microsome.
The next data set addresses T3, Histone deacetylase 7 (Homo sapiens, UniProt Q8WUI4).
T3 sequence (Q8WUI4 whole entry): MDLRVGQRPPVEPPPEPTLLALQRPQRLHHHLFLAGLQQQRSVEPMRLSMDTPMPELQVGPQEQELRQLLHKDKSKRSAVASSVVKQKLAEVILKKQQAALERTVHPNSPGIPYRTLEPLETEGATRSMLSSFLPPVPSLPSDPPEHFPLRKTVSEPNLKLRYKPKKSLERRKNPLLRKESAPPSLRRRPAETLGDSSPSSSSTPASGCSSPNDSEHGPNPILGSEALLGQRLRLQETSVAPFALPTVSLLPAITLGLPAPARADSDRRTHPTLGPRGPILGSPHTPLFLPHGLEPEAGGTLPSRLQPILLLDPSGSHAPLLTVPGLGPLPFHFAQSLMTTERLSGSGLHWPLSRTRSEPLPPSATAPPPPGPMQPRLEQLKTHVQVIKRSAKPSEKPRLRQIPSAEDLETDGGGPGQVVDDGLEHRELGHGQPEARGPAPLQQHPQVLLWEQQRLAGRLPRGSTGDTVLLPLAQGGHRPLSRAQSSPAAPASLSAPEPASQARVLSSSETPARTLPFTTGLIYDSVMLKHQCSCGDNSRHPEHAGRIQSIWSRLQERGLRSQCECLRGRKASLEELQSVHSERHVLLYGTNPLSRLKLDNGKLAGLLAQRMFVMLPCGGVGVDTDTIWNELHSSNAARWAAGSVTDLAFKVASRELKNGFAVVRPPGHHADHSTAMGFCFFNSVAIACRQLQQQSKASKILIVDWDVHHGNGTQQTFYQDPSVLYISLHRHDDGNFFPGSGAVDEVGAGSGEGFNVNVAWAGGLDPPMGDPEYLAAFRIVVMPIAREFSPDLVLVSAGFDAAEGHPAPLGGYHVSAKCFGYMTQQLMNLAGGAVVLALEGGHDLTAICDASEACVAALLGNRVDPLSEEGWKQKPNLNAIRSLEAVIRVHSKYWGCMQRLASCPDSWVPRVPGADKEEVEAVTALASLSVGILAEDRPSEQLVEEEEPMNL
The data set can be described thus: Inhibition of HDAC7.

Data set [11] in a line: Oral bioavailability dog. The data set is classed as ADME, organism-based, Canis lupus familiaris. The following applies: in vivo.
Data set [12] is described as follows: Metabolic stability in rat liver microsomes assessed as intrinsic clearance. The data set is classed as ADME, Microsome.
The test system of data set [13] is HCT-116. Briefly: Antiproliferative activity against human HCT116 cells after 72 hrs by celltiter-blue viability assay. Format: functional, cell-based. The following applies: HCT-116, 72 h.
A short description of data set [14]: Oral bioavailability in rat. Format: ADME, organism-based. The settings on record: in vivo.
Data set [15] in a line: Volume of distribution at steady state in iv dosed dog. Format: ADME, organism-based, Canis lupus familiaris. The settings on record: in vivo, read-out: Vdss.
For data set [16], the system named is HCT-116. The data set can be described thus: In vivo antitumor activity against human HCT116 cells. Format: functional, organism-based.

The IC50 is the concentration at which inhibition is half-maximal. A low value points to higher potency. Broadly, the half-life is the time in which the quantity being followed falls by half. Low values mean fast loss, high ones slow loss. As a reminder, the clearance is the rate of elimination divided by the concentration. A high value points to a high capacity for elimination. Broadly, the bioavailability is the share of a dose that reaches the circulation, judged against a reference dose that is usually intravenous. Read a low bioavailability as little systemic uptake. One may read the microsomal CLint as the rate of metabolic loss divided by the concentration.

Structures are written as SMILES. The source made the active and inactive calls. The rule behind the calls is not given here.

Chain of Histone deacetylase 1 (Q13547 whole entry): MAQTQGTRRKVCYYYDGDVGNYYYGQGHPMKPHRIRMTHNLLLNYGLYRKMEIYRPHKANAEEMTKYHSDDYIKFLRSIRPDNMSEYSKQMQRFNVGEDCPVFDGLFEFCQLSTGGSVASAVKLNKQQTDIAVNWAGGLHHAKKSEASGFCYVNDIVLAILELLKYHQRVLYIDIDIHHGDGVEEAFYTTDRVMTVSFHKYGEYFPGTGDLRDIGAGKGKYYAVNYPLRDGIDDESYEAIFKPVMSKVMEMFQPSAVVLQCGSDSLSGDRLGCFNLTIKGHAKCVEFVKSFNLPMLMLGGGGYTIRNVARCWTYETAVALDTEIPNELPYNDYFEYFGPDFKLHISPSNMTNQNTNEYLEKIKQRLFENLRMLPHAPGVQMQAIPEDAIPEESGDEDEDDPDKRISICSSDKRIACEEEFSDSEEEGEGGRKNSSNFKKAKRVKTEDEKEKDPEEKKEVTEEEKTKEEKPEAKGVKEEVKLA
Chain of Histone deacetylase 3 (O15379 whole entry): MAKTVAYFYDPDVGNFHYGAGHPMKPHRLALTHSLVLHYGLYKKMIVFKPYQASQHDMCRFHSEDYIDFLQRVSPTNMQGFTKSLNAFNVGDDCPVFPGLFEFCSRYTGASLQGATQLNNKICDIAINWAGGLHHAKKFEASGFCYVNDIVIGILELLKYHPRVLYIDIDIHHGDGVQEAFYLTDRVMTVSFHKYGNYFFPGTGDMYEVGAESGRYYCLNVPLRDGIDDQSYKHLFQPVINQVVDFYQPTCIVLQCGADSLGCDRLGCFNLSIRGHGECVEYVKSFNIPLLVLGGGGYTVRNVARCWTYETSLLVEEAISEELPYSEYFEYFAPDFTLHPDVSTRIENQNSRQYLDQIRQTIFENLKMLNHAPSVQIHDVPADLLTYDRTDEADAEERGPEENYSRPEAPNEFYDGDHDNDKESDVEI
Chain of Histone deacetylase 2 (Q92769 whole entry): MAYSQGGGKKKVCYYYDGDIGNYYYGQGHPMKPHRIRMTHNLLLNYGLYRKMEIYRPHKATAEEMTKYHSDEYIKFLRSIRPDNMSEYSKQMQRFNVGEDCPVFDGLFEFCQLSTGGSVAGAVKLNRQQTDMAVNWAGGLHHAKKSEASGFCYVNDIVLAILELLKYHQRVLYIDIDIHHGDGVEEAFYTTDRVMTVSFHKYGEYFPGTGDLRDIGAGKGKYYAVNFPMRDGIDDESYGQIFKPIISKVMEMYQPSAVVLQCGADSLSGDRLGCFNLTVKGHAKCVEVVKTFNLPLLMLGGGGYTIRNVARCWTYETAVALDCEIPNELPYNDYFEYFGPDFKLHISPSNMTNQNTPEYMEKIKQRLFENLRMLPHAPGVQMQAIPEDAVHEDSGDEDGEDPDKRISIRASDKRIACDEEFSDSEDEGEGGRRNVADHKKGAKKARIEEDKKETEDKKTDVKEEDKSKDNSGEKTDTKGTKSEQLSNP
Description for Histone deacetylase 1: Inhibition of human recombinant C-terminally flag tagged HDAC1

For the compound `CCCCC(=O)CCCCC[C@H](NC(=O)C1CCN(C)CC1)c1ncc(-c2ccc3ccccc3c2)[nH]1`, the IC50 in data set [1] was found to be 3500 nM; at Histone deacetylase 3, 180 nM; in the data set with HeLa, 690 nM; at Histone deacetylase 1, 74 nM.
In the same order, the values of `CCC(=O)CCCCC[C@H](NC(=O)C1CCN(C)CC1)c1ncc(-c2ccc3ccccc3c2)[nH]1` are 800 nM, 12 nM, 210 nM and 12 nM.
On the same counts, the results for `CCCC(=O)CCCCC[C@H](NC(=O)C1CCN(C)CC1)c1ncc(-c2ccc3ccccc3c2)[nH]1` are 1400 nM, 27 nM, 200 nM and 16 nM.
As for `CC(=O)CCCCC[C@H](NC(=O)C1CCN(C)CC1)c1ncc(-c2ccc3ccccc3c2)[nH]1`, the IC50 was over 1000 nM at Histone deacetylase 8; 29 nM against Histone deacetylase 2; 10 nM in data set [1]; 720 nM in the data set with A549; 17 nM on Histone deacetylase 3; over 1000 nM against Histone deacetylase 4. In addition, the IC50 was over 1000 nM against Histone deacetylase 5; over 1000 nM on Histone deacetylase 7; 300 nM in the data set with HeLa; 11 nM against Histone deacetylase 1; 590 nM in the data set on HCT-116 [13]. In addition, the half-life in data set [2] is 2.4 h; in data set [5] it was 11.8 h. The clearance in [3] was 7 mL/min/kg; in data set [10], 133 mL/min/kg. Further, the figures for the Vd in [4] and in data set [15] were 6.9 L/kg and 5.2 L/kg, respectively. Besides, the fraction unbound in [6] is 0.04; in [7], 0.04; in [9] it was 0.11. The CL in [8] is 10 µL/min/mg; with Liver microsomes it was 12 µL/min/mg. The bioavailability in [11] stood at 28%; in data set [14] it was 0%. Moreover, in data set [12], the microsomal CLint amounted to 194 µL/min/mg.
In the case of `COc1ccc2[nH]c(C)c(CC(=O)N[C@@H](CCCCCC(C)=O)c3ncc(-c4ccccc4)[nH]3)c2c1`, the IC50 against Histone deacetylase 8, against Histone deacetylase 4, on Histone deacetylase 5 and on Histone deacetylase 7 was over 1000 nM in each case. For the same compound, the outcome in the data set on HCT-116 [16] was Active. The intrinsic metabolic clearance (microsomal CLint) in data set [12] is over 300 µL/min/mg.
